# Data as given in patent US8557796B2, “Substituted 1-oxa-2,8-diaza-spiro [4,5] dec-2-ene derivatives and related treatment methods” (Gruenenthal GmbH, priority 2001, dated 2013).
# Test system: batrachotoxin (BTX) binding site (binding site 2) of the sodium channel
# Test: Bond test on the sodium channel, binding site 2 (BTX bond), [3H]-batrachotoxinin A20 α-benzoate displacement
# Details: rat cerebrocortex synaptosomes
row,Compound,"BTX bond, 10 μM, % inhibition [%]"
1,"O=C(C1=NOC2(CCN(S(=O)(=O)c3cccs3)CC2)C1)N1CCN(CCCc2ccccc2)CC1 [Example 14, [4-(3-phenyl-propyl)-piperazin-l-yl]-[8-(thiophene-2-sulphonyl)-1-oxa-2,8-diaza-spiro[4,5]dec-2-en-3-yl]-methanone]",79
2,"O=C(NCC1COc2ccccc2O1)C1=NOC2(CCN(S(=O)(=O)c3cccs3)CC2)C1 (stereo not drawn) [Example 21, 8-(thiophene-2-sulphonyl)-1-oxa-2,8-diaza-spiro[4,5]dec-2-ene-3-carboxylic acid (2,3-dihydro-benzo[1,4]dioxin-2-ylmethyl)-amide]",63
3,"O=C(NCc1cccs1)C1=NOC2(CCN(C(=O)c3ccc(F)c(Cl)c3)CC2)C1 [Example 184, 8-(3-chloro-4-fluorobenzoyl)-1-oxa-2,8-diaza-spiro[4,5]dec-2-ene-3-carboxylic acid (thiophen-2-ylmethyl)-amide]",73
4,"CCOC(=O)C1CCCCN1C(=O)C1=NOC2(CCN(C(=O)c3ccc(C(C)(C)C)cc3)CC2)C1 (stereo not drawn) [Example 195, 1-[8-(4-tert-butyl-benzoyl)-1-oxa-2,8-diaza-spiro[4,5]dec-2-ene-3-carbonyl]-piperidine-2-carboxylic acid ethyl ester]",85
5,O=C(C1=NOC2(CCN(S(=O)(=O)Cc3ccccc3)CC2)C1)N1CCN(CCCc2ccccc2)CC1 [Example 69],50
6,"O=C(C1=NOC2(CCN(S(=O)(=O)Cc3ccccc3)CC2)C1)N1CCN(Cc2ccc3ccccc3c2)CC1 [Example 6, (4-naphthalen-2-ylmethyl-piperazin-l-yl)-(8-phenylmethane-sulphonyl-1-oxa-2,8 diaza-spiro[4,5]dec-2-en-3-yl)-methanone]",49
7,"CCCC(=O)N1CCC2(CC1)CC(C(=O)Nc1ccccc1)=NO2 [Example 85, 8-butyryl-1-oxa-2,8-diaza-spiro[4,5]dec-2-ene-3-carboxylic acid phenylamide]",62
8,"O=C(NCC1COc2ccccc2O1)C1=NOC2(CCN(S(=O)(=O)c3ccc(Cl)s3)CC2)C1 (stereo not drawn) [Example 194, 8-(5-chloro-thiophene-2-sulphonyl)-1-oxa-2,8-diaza-spiro[4,5]dec-2-ene-3-carboxylic acid (2,3-dihydro-benzo[1,4]dioxin-2-ylmethyl)-amide]",68
9,"O=C(Nc1ccccc1)C1=NOC2(CCN(C(=O)c3ccc(Br)cc3)CC2)C1 [Example 181, 8-(4-bromo-benzoyl)-1-oxa-2,8-diaza-spiro[4,5]dec-2-ene-3-acarboxylic cid phenylamide]",50
10,"O=C(NCc1ccc2c(c1)OCO2)C1=NOC2(CCN(S(=O)(=O)c3ccc(Cl)s3)CC2)C1 [Example 30, 8-(5-chloro-thiophene-2-sulphonyl)-1-oxa-2,8-diaza-spiro[4,5]dec-2-ene-3-carboxylic acid (benzo[1,3]dioxol-5-ylmethyl)-amide]",56
11,"O=C(Nc1ccccc1)C1=NOC2(CCN(C(=O)c3cccc(Cl)c3Cl)CC2)C1 [Example 172, 8-(2,3-dichloro-benzoyl)-1-oxa-2,8-diaza-spiro[4,5]dec-2-ene-3-carboxylic acid phenylamide]",60
12,"O=C(C1=NOC2(CCN(S(=O)(=O)c3cccc(C(F)(F)F)c3)CC2)C1)N1CCN(CCCc2ccccc2)CC1 [Example 83, [4-(3-phenyl-propyl)-piperazin-1-yl]-[8-(3-trifluoromethyl-benzenesulphonyl)-1-oxa-2,8-diaza-spiro[4,5]dec-2-en-3-yl]-methanone]",72
13,"Cc1oc(C(C)(C)C)cc1C(=O)N1CCC2(CC1)CC(C(=O)NC1CCCC1)=NO2 [Example 126, 8-(5-tert-butyl-2-methyl-furan-3-carbonyl)-1-oxa-2,8-diaza-spiro[4,5]dec-2-ene-3-carboxylic acid cyclopentylamide]",56
14,"O=C(C1=NOC2(CCN(S(=O)(=O)c3cccc(C(F)(F)F)c3)CC2)C1)N1CCC(Cc2ccccc2)CC1 [Example 211, (4-benzyl-piperidin-l-yl)-[8-(3-trifluoromethyl-benzene-sulphonyl)-1-oxa-2,8-diaza-spiro[4,5]dec-2-en-3-yl]-methanone]",48
15,"CCOC(=O)C1CCCCN1C(=O)C1=NOC2(CCN(C(=O)c3cc(C(C)(C)C)oc3C)CC2)C1 (stereo not drawn) [Example 179, 1-[8-(5-tert-butyl-2-methyl-furan-3-carbonyl)-1-oxa-2,8-diaza-spiro[4,5]dec-2-ene-3-carbonyl]-piperidine-2-carboxylic acid ethyl ester]",55
16,"O=C(NCc1ccccc1)C1=NOC2(CCN(S(=O)(=O)c3cccs3)CC2)C1 [Example 136, 8-(thiophene-2-sulphonyl)-1-oxa-2,8-diaza-spiro[4,5]dec-2-ene-3-carboxylic acid benzylamide]",44
17,"O=C(NCc1ccccc1)C1=NOC2(CCN(C(=O)c3ccc(Br)cc3)CC2)C1 [Example 212, 8-(4-bromo-benzoyl)-1-oxa-2,8-diaza-spiro[4,5]dec-2-ene-3-carboxylic acid benzylamide]",58
18,"COc1cccc(CCNC(=O)C2=NOC3(CCN(S(=O)(=O)c4ccc(F)cc4)CC3)C2)c1 [Example 124, 8-(4-fluoro-benzenesulphonyl)-1-oxa-2,8-diaza-spiro[4,5]dec-2-ene-3-carboxylic acid [2-(3-methoxy-phenyl)-ethyl]-amide]",54
19,O=C(Cc1ccc(F)c(F)c1)N1CCN(C(=O)C2=NOC3(CCN(S(=O)(=O)c4cccc(C(F)(F)F)c4)CC3)C2)CC1 [Example 93],52
20,"O=C(C1=NOC2(CCN(S(=O)(=O)c3ccc(Cl)s3)CC2)C1)N1CCN(c2ccc(F)cc2)CC1 [Example 91, [8-(5-chloro-thiophene-2-sulphonyl)-1-oxa-2,8-diaza-spiro[4,5]dec-2-en-3-yl]-[4-(4-fluorophenyl)-piperazin-1-yl]-methanone]",72
21,"CC(NC(=O)C1=NOC2(CCN(S(=O)(=O)c3ccc(Cl)s3)CC2)C1)c1cccc2c1OCCO2 (stereo not drawn) [Example 140, 8-(5-chloro-thiophene-2-sulphonyl)-1-oxa-2,8-diaza-spiro[4,5]dec-2-ene-3-carboxylic acid [1-(2,3-dihydro-benzo[1,4]dioxin-5-yl)-ethyl]-amide]",60
22,"O=C(NCc1cccs1)C1=NOC2(CCN(C(=O)COc3cccc(Cl)c3)CC2)C1 [Example 96, 8-[2-(3-chloro-phenoxy)-acetyl]-1-oxa-2,8-diaza-spiro[4,5]dec-2-ene-3-carboxylic acid (thiophen-2-ylmethyl)-amide]",72
23,"COc1ccc(S(=O)(=O)N2CCC3(CC2)CC(C(=O)NC2CC2c2ccccc2)=NO3)cc1 (stereo not drawn) [Example 182, 8-(4-methoxy-benzenesulphonyl)-1-oxa-2,8-diaza-spiro[4,5]dec-2-ene-3-carboxylic acid (2-phenyl-cyclopropyl)-amide]",47
24,"CN(CCc1c[nH]c2ccccc12)C(=O)C1=NOC2(CCN(S(=O)(=O)c3ccc(OC(F)(F)F)cc3)CC2)C1 [Example 16, 8-(4-trifluoromethoxy-benzenesulphonyl)-1-oxa-2,8-diaza-spiro[4,5]dec-2-ene-3 carboxylic acid [2-(1 H-indo1-3-yl)-ethyl]-methyl-amide]",60
25,"O=C(NC1CCCC1)C1=NOC2(CCN(C(=O)c3ccc([N+](=O)[O-])cc3Cl)CC2)C1 [Example 5, 8-(2-chloro-4-nitro-benzoyl)-1-oxa-2,8-diaza-spiro[4,5]dec-2-ene-3-carboxylic acid cyclopentylamide]",64
26,"N#CCCN(Cc1cccnc1)C(=O)C1=NOC2(CCN(S(=O)(=O)c3cc(Cl)ccc3Cl)CC2)C1 [Example 99, 8-(2,5-dichloro-benzenesulphonyl)-1-oxa-2,8-diaza-spiro[4,5]dec-2-ene-3-carboxylic acid (2-cyano-ethyl)-pyridin-3-ylmethyl-amide]",50

# Same assay, conditions: rat cerebrocortex synaptosomes, 10 µM
row,Compound,"BTX bond, 10 μM, % inhibition [%]"
1,"Cc1ccc(S(=O)(=O)N2CCC3(CC2)CC(C(=O)NC2CCCC2OCc2ccccc2)=NO3)cc1 (stereo not drawn) [Example 73, 8-(toluene-4-sulphonyl)-1-oxa-2,8-diaza-spiro[4,5]dec-2-ene-3-carboxylic acid (2-benzyloxy-cyclopentyl)-amide]",75
